From the supplement of paper PMC10307832

Key:
Experiment in all cases: relative viability (nuclei count vs DMSO), 5 days (fraction); higher = more cells survive
[1] = tested on: NCI-H838
Summary of the method: (§1)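 For relative viability, nuclei counts in treated wells were divided by those in vehicle wells. Lung cancer cell lines had been pin-tool dosed in 1536-well plates the day after seeding and cultured for 5 days, then fixed and stained in one step (final 0.05% Triton X-100, 1% formaldehyde, 1 ug/ml Hoechst) and imaged at 4×. Doses were one drug alone or a fixed anchor-drug dose plus five library-drug doses (not always all listed) in √10 steps, and values are duplicate-plate medians.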

[2] = tested on: NCI-H1993
Summary of the method: as §1

[3] = tested on: NCI-H2347
Summary of the method: as §1

[4] = tested on: NCI-H596
Summary of the method: as §1

[5] = tested on: LCLC-103H
Summary of the method: as §1

[6] = tested on: EMC-BAC-2
Summary of the method: as §1

[7] = tested on: NCI-H2126
Summary of the method: as §1

[8] = tested on: NCI-H1666
Summary of the method: as §1

[9] = tested on: NCI-H727
Summary of the method: as §1

[10] = tested on: NCI-H650
Summary of the method: as §1

[11] = tested on: HARA
Summary of the method: as §1

[12] = tested on: NCI-H2009
Summary of the method: as §1

## Oc1nc(-c2ccc(C(F)(F)F)cc2)nc2c1CSCC2 [XAV939] + CCNC(=O)c1noc(-c2cc(C(C)C)c(O)cc2O)c1-c1ccc(CN2CCOCC2)cc1 [Luminespib] (partner 0.01 µM)
[1]; first compound 0.253 µM
  relative viability: 0.37
[1]; first compound 0.8 µM
  relative viability: 0.325
[1]; first compound 2.53 µM
  relative viability: 0.304
[2]; first compound 0.08 µM
  relative viability: 0.779
[2]; first compound 0.253 µM
  relative viability: 0.672
[2]; first compound 0.8 µM
  relative viability: 0.748
[2]; first compound 2.53 µM
  relative viability: 0.714
[3]; first compound 0.08 µM
  relative viability: 0.419
[3]; first compound 2.53 µM
  relative viability: 0.248
[4]; first compound 0.08 µM
  relative viability: 1.06
[4]; first compound 0.253 µM
  relative viability: 0.881
[4]; first compound 0.8 µM
  relative viability: 1.13
[4]; first compound 2.53 µM
  relative viability: 0.873
[5]; first compound 0.08 µM
  relative viability: 1.09
[5]; first compound 0.253 µM
  relative viability: 0.934
[5]; first compound 0.8 µM
  relative viability: 0.971
[5]; first compound 2.53 µM
  relative viability: 0.799
[6]; first compound 0.08 µM
  relative viability: 1.37
[6]; first compound 0.253 µM
  relative viability: 1.09
[6]; first compound 0.8 µM
  relative viability: 0.971
[6]; first compound 2.53 µM
  relative viability: 0.771
[7]; first compound 0.08 µM
  relative viability: 0.985
[7]; first compound 0.253 µM
  relative viability: 0.843
[7]; first compound 0.8 µM
  relative viability: 0.869
[7]; first compound 2.53 µM
  relative viability: 0.733
[8]; first compound 0.08 µM
  relative viability: 1.07
[8]; first compound 0.253 µM
  relative viability: 0.666
[8]; first compound 0.8 µM
  relative viability: 0.981
[8]; first compound 2.53 µM
  relative viability: 0.848
[9]; first compound 0.08 µM
  relative viability: 0.31
[9]; first compound 0.253 µM
  relative viability: 0.345
[9]; first compound 0.8 µM
  relative viability: 0.472
[9]; first compound 2.53 µM
  relative viability: 0.342
[10]; first compound 0.08 µM
  relative viability: 0.858
[10]; first compound 0.253 µM
  relative viability: 0.75
[10]; first compound 0.8 µM
  relative viability: 0.93
[10]; first compound 2.53 µM
  relative viability: 0.745
[11]; first compound 0.08 µM
  relative viability: 1.29
[11]; first compound 0.253 µM
  relative viability: 0.877
[11]; first compound 0.8 µM
  relative viability: 0.865
[11]; first compound 2.53 µM
  relative viability: 0.675
[12]; first compound 0.08 µM
  relative viability: 1.09
[12]; first compound 0.253 µM
  relative viability: 0.883
[12]; first compound 0.8 µM
  relative viability: 1
[12]; first compound 2.53 µM
  relative viability: 0.94
